# Assay results taken from PMC9511441, “Semisynthetic teicoplanin derivatives with dual antimicrobial activity against SARS-CoV-2 and multiresistant bacteria” (Scientific Reports, 2022).
# Entries after “also recorded” stand apart in the source; their conditions may differ. Where two headings read alike, the source gives them in different places.
# Assays:
# SARS-CoV-2 3CL^Pro = SARS-CoV-2 3CL^Pro (Severe acute respiratory syndrome coronavirus 2, UniProt P0DTD1); experiment: biochemical; format: biochemical
# SARS-CoV-2 [1] = experiment: microbe, parasite or virus in culture; format: cell-based; conditions: for EC50: Calu-3 cells, three days, XTT, read-out: EC50, CPE reduction, SARS-CoV-2 in Calu-3 cells
# [2] = Cytotoxicity in mock-infected VeroE6 cells (XTT); format: cell-based, African green monkey; conditions: African green monkey; mock-infected Vero E6 cells, three days, XTT
# VeroE6 cells = experiment: Cytotoxicity in mock-infected VeroE6 cells (XTT); format: cell-based, African green monkey
# HCoV-229E = experiment: CPE reduction assay, HCoV-229E in HEL cells; format: cell-based; conditions: for EC50: MTS, mean of 2–3 tests
# SARS-CoV-2 pseudovirus [3] = experiment: microbe, parasite or virus in culture; format: cell-based; conditions: for Inhibition of pseudovirus entry in A549-AT cells (in words): TMPRSS2-mediated uptake; for EC50: A549-AT cells (ACE2 and TMPRSS2), luciferase signal, mean ± SEM of 3 tests, read-out: EC50, inhibition of SARS-CoV-2 pseudovirus entry in A549-AT cells
# SARS-CoV-2 [4] = experiment: microbe, parasite or virus in culture; format: cell-based; conditions: for EC50: Vero E6 cells, three days, XTT, read-out: EC50, CPE reduction, SARS-CoV-2 in Vero E6 cells
# [5] = biological target: T1, human recombinant cathepsin L (Homo sapiens, UniProt P07711); experiment: biochemical; format: biochemical
# T1 construct: made in house; host or cells: Escherichia coli
# T1 sequence (P07711 114-333): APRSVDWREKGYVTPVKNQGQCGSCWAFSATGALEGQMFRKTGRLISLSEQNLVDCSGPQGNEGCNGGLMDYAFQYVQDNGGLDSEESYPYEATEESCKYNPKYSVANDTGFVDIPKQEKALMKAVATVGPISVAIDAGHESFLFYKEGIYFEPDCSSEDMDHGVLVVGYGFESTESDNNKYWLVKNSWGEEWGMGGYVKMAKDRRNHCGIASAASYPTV
# Description: Cathepsin L inhibition was assessed as reported. Briefly, human recombinant cathepsin L was expressed in Escherichia coli[33]. Enzymatic activity was determined in 100 mM acetate buffer (pH 5.5) containing 0.1% PEG 8000, 5 mM cysteine and 1.5 mM EDTA. The enzyme was first activated in assay buffer for 5 min at 37 °C, after which it was added to the wells of a black microplate containing the Z-Phe-Arg-AMC substrate (Bachem) and compounds. Formation of the fluorescent cleavage product was monitored for 50 min at 37 °C, using a Tecan Infinit M1000 spectrofluorimeter set at 460 nm emission and 380 nm excitation wavelength. All assay mixtures contained 5% (v/v) DMSO and 0.01% Triton X-100 to prevent false-positive inhibition due to formation of compound aggregates. All measurements were performed in triplicate and repeated twice. The relative inhibition was calculated using the equation: Relative inhibition (%) = 100(1 − vi/vo), where vi and vo designate the reaction velocities in the presence and absence of inhibitor, respectively. IC50 values were determined from nine data points at different inhibitor concentrations.
# in vitro = conditions: human
# SARS-CoV-2 pseudovirus [6] = experiment: microbe, parasite or virus in culture; format: cell-based; conditions: for EC50: Vero cells, luciferase signal, mean ± SEM of 3 tests, read-out: EC50, inhibition of SARS-CoV-2 pseudovirus entry in Vero cells; for Inhibition of pseudovirus entry in Vero cells (in words): cathepsin-dependent endosomal pathway
# [7] = Cytotoxicity in mock-infected HEL cells (MTS); format: cell-based, human; conditions: human; mock-infected HEL cells, MTS, mean of 2–3 tests
# Calu-3 cells = experiment: Cytotoxicity in mock-infected Calu-3 cells (XTT); conditions: read-out: CC50, Calu-3 cells, three days
# E. faecalis = experiment: MIC, broth microdilution; format: cell-based
# S.pyogenes = experiment: MIC, broth microdilution; format: cell-based
# S. aureus = experiment: MIC, broth microdilution; format: cell-based
# S. haemolyticus = experiment: MIC, broth microdilution; format: cell-based
# S. epidermidis = experiment: microbe, parasite or virus in culture; format: cell-based
# E. faecium = experiment: microbe, parasite or virus in culture; format: cell-based
# [8] = tested on: Pseudomonas aeruginosa ATCC 27853; experiment: MIC against Gram-negative strain; conditions: ATCC27853
# [9] = tested on: Acinetobacter baumannii ATCC BAA1605; experiment: MIC against Gram-negative strain; conditions: Acinetobacter baumannii ATCC BAA1605
# [10] = tested on: Klebsiella pneumoniae ST258 clone K 160/09; experiment: MIC against Gram-negative strain; conditions: Klebsiella pneumoniae ST258 clone K 160/09
# HEL cells = experiment: Cytotoxicity in mock-infected HEL cells (MTS); format: cell-based, human; conditions: mock-infected HEL cells, MTS, mean of 2–3 tests
# [11] = tested on: Escherichia coli ATCC 25218; experiment: MIC against Gram-negative strain; conditions: ATCC25218
# [12] = Severe acute respiratory syndrome-related coronavirus
compound,measurement,setting,value
O=C(O)CCC(F)(F)C(F)(F)C(F)(F)C(F)(F)C(F)(F)C(F)(F)C(F)(F)C(F)(F)F [Compound 14],inhibition at 200 µM,SARS-CoV-2 3CL^Pro,12 ± 2%
same,Activity against SARS-CoV-2 in Calu-3 cells (in words),SARS-CoV-2 [1],active
same,EC50,"SARS-CoV-2 [1]; Severe acute respiratory syndrome coronavirus 2, 72 h",46 ± 1.9 µM
same,CC50,[2],39 ± 1.4 µM
same,Toxicity in VeroE6 cells (in words),VeroE6 cells; VeroE6 cells,quite toxic
same,EC50,HCoV-229E; Human coronavirus 229E,69 µM
same,Inhibition of pseudovirus entry in A549-AT cells (in words),SARS-CoV-2 pseudovirus [3],inhibited both entry routes
same,EC50,SARS-CoV-2 pseudovirus [3]; [12],24 ± 6 µM
same,EC50,"SARS-CoV-2 [4]; Severe acute respiratory syndrome coronavirus 2, Vero C1008, 72 h",19 ± 1.5 µM
same,Reduction of the CPE of SARS-CoV-2 in VeroE6 cells (in words),SARS-CoV-2 [4]; VeroE6 cells,did show antiviral activity
same,IC50,"[5]; pH 5.5, Z-Phe-Arg-AMC substrate, read-out: Cathepsin L IC50",> 500 µM
same,CC50,in vitro,~53 µM
same,EC50,SARS-CoV-2 pseudovirus [6]; [12],13 ± 5 µM
same,Inhibition of pseudovirus entry in Vero cells (in words),SARS-CoV-2 pseudovirus [6],inhibited both entry routes
same,CC50,[7],> 100 µM
teicoplanin [reference compound],3CL^Pro % inhibition at 200 µM,SARS-CoV-2 3CL^Pro; at 200 µM,13 ± 8%
same,CC50,Calu-3 cells,> 100 µM
same,Activity against SARS-CoV-2 in Calu-3 cells (in words),SARS-CoV-2 [1],inactive; also recorded: does not inhibit
same,EC50,SARS-CoV-2 [1],> 100 µM
same,Average MIC value,"E. faecalis; E. faecalis VAN^R,TEI^R/VanA, 1 strain",> 64 µg/mL
same,Average MIC value,"E. faecalis; E. faecalis VAN^S, TEI^S, 2 strains",0.25 µg/mL
same,MIC value,E. faecalis; E.faecalis JH2-2,"0,25 µg/ml"
same,MIC value,E. faecalis; E.faecalis OG1RF,"0,25 µg/ml"
same,MIC value,"E. faecalis; E.faecalis V583, VAN,TEI/VanA",>64 µg/mL
same,MIC value,S.pyogenes; S.pyogenes H232,"0,03125 µg/ml"
same,MIC value,S.pyogenes; S.pyogenes H550,"0,25 µg/ml"
same,MIC value,S.pyogenes; S.pyogenes H578,"0,25 µg/ml"
same,MIC value,"S. aureus; S. aureus 73OL, MRSA","0,5 µg/ml"
same,MIC value,"S. aureus; S. aureus 214OL, MRSA",2 µg/mL
same,MIC value,"S. aureus; S. aureus 1041OL, MRSA",1 µg/mL
same,MIC value,"S. aureus; S. aureus A6918, MRSA",1 µg/mL
same,MIC value,"S. aureus; S. aureus A6919, MRSA","0,5 µg/ml"
same,MIC value,"S. aureus; S. aureus ATCC29213, MSSA","0,5 µg/ml"
same,Average MIC value,"S. aureus; S. aureus CA-MRSA, 1 strain",0.125 µg/mL
same,Average MIC value,"S. aureus; S. aureus MRSA, 7 strains",1.43 µg/mL
same,MIC value,"S. aureus; S. aureus MSSA476, MSSA","0,25 µg/ml"
same,Average MIC value,"S. aureus; S. aureus MSSA, 4 strains",0.375 µg/mL
same,MIC value,"S. aureus; S. aureus Mu50, MRSA",4 µg/mL
same,MIC value,"S. aureus; S. aureus N315, MRSA",1 µg/mL
same,MIC value,"S. aureus; S. aureus Newman, MSSA","0,25 µg/ml"
same,MIC value,"S. aureus; S. aureus SA564, MSSA","0,5 µg/ml"
same,MIC value,"S. aureus; S. aureus USA300, CA-MRSA","0,125 µg/ml"
same,Average MIC value,"S. haemolyticus; S. haemolyticus mecA, 6 strains",112 µg/mL
same,MIC value,"S. haemolyticus; S.haemolyticus DALB_R1, mecA",128 µg/mL
same,MIC value,"S. haemolyticus; S.haemolyticus DALB_R2, mecA",256 µg/mL
same,MIC value,"S. haemolyticus; S.haemolyticus DALB_R3, mecA",32 µg/mL
same,MIC value,"S. haemolyticus; S.haemolyticus DALB_R4, mecA",64 µg/mL
same,MIC value,"S. haemolyticus; S.haemolyticus DALB_R5, mecA",128 µg/mL
same,MIC value,"S. haemolyticus; S.haemolyticus ORI_R1, mecA",64 µg/mL
same,CC50,"VeroE6 cells; mock-infected Vero E6 cells, three days, XTT",> 100 µM
same,Activity against HCoV-229E CPE (in words),HCoV-229E,inactive
same,EC50,HCoV-229E,> 100 µM
same,EC50,SARS-CoV-2 pseudovirus [3],> 125 µM
same,Inhibition of pseudovirus entry in A549-AT cells (in words),SARS-CoV-2 pseudovirus [3],inactive
same,Average MIC value,"S. epidermidis; S. epidermidis mecA, 6 strains",26.7 µg/mL
same,MIC value,"S. epidermidis; S.epidermidis ORI_R1, mecA",32 µg/mL
same,MIC value,"S. epidermidis; S.epidermidis ORI_R2, mecA",16 µg/mL
same,MIC value,"S. epidermidis; S.epidermidis ORI_R3, mecA",32 µg/mL
same,MIC value,"S. epidermidis; S.epidermidis ORI_R4, mecA",16 µg/mL
same,MIC value,"S. epidermidis; S.epidermidis TEI_R1, mecA",32 µg/mL
same,MIC value,"S. epidermidis; S.epidermidis TEI_R2, mecA",32 µg/mL
same,Average MIC value,"E. faecium; E. faecium VAN^R,TEI^R/VanA, 8 strains",> 64 µg/mL
same,Average MIC value,"E. faecium; E. faecium VAN^S, TEI^S, 1 strain",0.5 µg/mL
same,MIC value,"E. faecium; E.faecium E335, VAN,TEI,LNZ/VanA",>64 µg/mL
same,MIC value,"E. faecium; E.faecium E355, VAN,TEI,LNZ/VanA",>64 µg/mL
same,MIC value,"E. faecium; E.faecium E832, VAN,TEI,LNZ/VanA",>64 µg/mL
same,MIC value,"E. faecium; E.faecium E854, VAN,TEI,LNZ/VanA",>64 µg/mL
same,MIC value,"E. faecium; E.faecium E859, VAN,TEI,LNZ/VanA",>64 µg/mL
same,MIC value,"E. faecium; E.faecium E1114, VAN,TEI,LNZ/VanA",>64 µg/mL
same,MIC value,"E. faecium; E.faecium E1131, VAN,TEI,LNZ/VanA",>64 µg/mL
same,MIC value,"E. faecium; E.faecium E1132, VAN,TEI,LNZ/VanA",>64 µg/mL
same,MIC value,E. faecium; E.faecium TX0016,"0,5 µg/ml"
same,EC50,SARS-CoV-2 [4],16 ± 1.7 µM
same,MIC,[8],256 µg/mL
same,Cathepsin L inhibition (in words),[5],inactive
same,Cathepsin L inhibition at 50 µM,[5]; at 50 µM,5% at 50 µM
same,MIC,[9],128 µg/mL
same,EC50,SARS-CoV-2 pseudovirus [6],21 ± 5 µM
same,Inhibition of pseudovirus entry in Vero cells (in words),SARS-CoV-2 pseudovirus [6],moderately active
same,MIC,[10],256 µg/mL
same,CC50,HEL cells,> 100 µM
same,MIC,[11],256 µg/mL
